The values that follow are results of earlier work, collected in US20140023692A1, “DRUG DELIVERY DEVICE” (priority 2010, published 2014).

≈ marks a conversion by molar mass, not a printed value. Where “and” joins values, the source holds several entries; their conditions need not be identical. Equal entries are not always repeated. Where two headings read alike, the source gives them in different places.

Data set [1] deals with Staphylococcus epidermidis.
For data set [2] the following is noted: topical application, rabbit.
[3] abbreviates: inflamed eyes (intravitreal Staphylococcus aureus, 24 h after inoculation).

On to `O=C(O)c1cn(C2CC2)c2cc(N3CCNCC3)c(F)cc2c1=O` [ciprofloxacin], for which the MIC90 in the data set with Enterobacter is 0.206 µg/mL (≈ 0.622 µM); in the data set with Klebsiella, 0.295 µg/mL (≈ 0.89 µM); in the data set on Proteus it was 0.267 µg/mL (≈ 0.806 µM); with Pseudomonas, 0.50 µg/mL and 0.626 µg/mL; in the data set with Haemophilus influenzae, 0.014 µg/mL (≈ 0.0423 µM); in the data set on Staphylococcus aureus it was 0.57 µg/mL and 0.796 µg/mL. Further, the MIC90 in data set [1] was 0.25 µg/mL and 0.375 µg/mL; in the data set on Streptococcus pyogenes, 0.782 µg/mL (≈ 2.36 µM); in the data set on Propionibacterium acnes it was 0.35 µg/mL (≈ 1.06 µM); with Bacillus cereus, 0.25 µg/mL (≈ 0.754 µM); in the data set on Serratia, 0.12 µg/mL (≈ 0.362 µM). The results for the “Mean aqueous concentration of ciprofloxacin” value in data set [2] (setting [3]) and in data set [2] (normal eyes) were 3.65 µg/mL and 2.16 µg/mL, respectively. Moreover, the “Mean vitreous concentration of ciprofloxacin” value in data set [2] (setting [3]) was 0.32 µg/mL; in data set [2] (normal eyes), 0.08 µg/mL.
